From patent US7964591B2, “Pyridazine derivatives and their use as therapeutic agents” (Novartis Pharma AG, priority 2003, dated 2011)

Target: T1, stearoyl-CoA desaturase (SCD) (Mus musculus, UniProt P13516)
T1 sequence (P13516 1-355): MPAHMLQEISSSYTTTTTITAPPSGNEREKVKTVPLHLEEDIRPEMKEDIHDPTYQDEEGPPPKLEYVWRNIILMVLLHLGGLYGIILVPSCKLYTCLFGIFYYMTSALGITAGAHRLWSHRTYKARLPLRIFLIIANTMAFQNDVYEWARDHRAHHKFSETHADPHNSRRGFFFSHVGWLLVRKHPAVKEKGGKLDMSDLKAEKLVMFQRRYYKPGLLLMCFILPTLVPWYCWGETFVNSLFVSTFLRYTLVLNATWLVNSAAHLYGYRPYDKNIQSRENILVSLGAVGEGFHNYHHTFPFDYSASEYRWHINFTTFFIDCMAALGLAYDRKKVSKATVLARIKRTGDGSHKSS
Experiment: Stearoyl-CoA desaturase inhibition using mouse liver microsomes (HTS microsomal assay, IC50 follow-up)
Settings: % SCD enzyme activity remaining at 10 μM test compound
Experimental: Livers are immediately rinsed with cold 0.9% NaCl solution, weighed and minced with scissors. All procedures are performed at 4° C. unless specified otherwise. Livers are homogenized in a solution (1:3 w/v) containing 0.25 M sucrose, 62 mM potassium phosphate buffer (pH 7.0), 0.15 M KCl, 1.5 mM N-acetyleysteine, 5 mM MgCl2, and 0.1 mM EDTA using 4 strokes of a Potter-Elvehjem tissue homogenizer. The homogenate is centrifuged at 10,400×g for 20 min to eliminate mitochondria and cellular debris. The supernatant is filtered through a 3-layer cheesecloth and centrifuged at 105,000×g for 60 min. The microsomal pellet is gently resuspended in the same homogenization solution with a small glass/teflon homogenizer and stored at −70° C. The absence of mitochondrial contamination is enzymatically assessed. The protein concentration is measured using bovine serum albumin as the standard.
The tubes are vortexed vigorously and after 15 min incubation in a shaking water bath (37° C.), the reactions are stopped and fatty acids are analyzed.
Fatty acids are analyzed as follows: The reaction mixture is saponified with 10% KOH to obtain free fatty acids which are further methylated using BF3 in methanol. […] Fatty acid methyl esters are separated isocratically with acetonitrile/water (95:5 v:v) at a flow rate of 1 mL/min and are identified by comparison with authentic standards.
The compounds are analyzed with an HTS microsomal assay. The activities are defined in terms of % SCD enzyme activity remaining at the selected concentration (e.g., 10 μM) of the test compounds.

**Q.** Which “Mouse Microsome 10% remaining @ 10 μM” value does the source give for `O=C(NCCC1CC1)c1ccc(N2CCN(C(=O)CC(O)(C(F)(F)F)C(F)(F)F)CC2)nn1` [6-[4-(4,4,4-TRIFLUORO-3-HYDROXY-3-TRIFLUOROMETHYLBUTYRYL)PIPERAZIN-1-YL]PYRIDAZINE-3-CARBOXYLIC ACID (2-CYCLOPROPYLETHYL)AMIDE] here?
**A.** The value was 8%.

**Q.** With `CC(C)CCNC(=O)c1ccc(N2CCN(C(=O)c3ccccc3[N+](=O)[O-])CC2)nn1` [6-[4-(2-NITROBENZOYL)PIPERAZIN-1-YL]PYRIDAZINE-3-CARBOXYLIC ACID (3-METHYLBUTYL)AMIDE] as the compound, how does the “Mouse Microsome 10% remaining @ 10 μM” value read?
**A.** Its value is 8%.

**Q.** Which “Mouse Microsome 10% remaining @ 10 μM” value does the source give for `CC(C)CCNC(=O)c1ccc(N2CCN(C(=O)C(C)CC(F)(F)F)CC2)nn1` (centres unmarked) [6-[4-(4,4,4-TRIFLUORO-2-METHYLBUTYRYL)PIPERAZIN-1-YL]PYRIDAZINE-3-CARBOXYLIC ACID (3-METHYLBUTYL)AMIDE] here?
**A.** The value was 19%.

**Q.** With `O=C(NCCC1CC1)c1ccc(N2CCN(Cc3cc(F)ccc3C(F)(F)F)CC2)nn1` [6-[4-(5-FLUORO-2-TRIFLUOROMETHYLBENZYL)PIPERAZIN-1-YL]PYRIDAZINE-3-CARBOXYLIC ACID (2-CYCLOPROPYLETHYL)AMIDE] as the compound, how does the “Mouse Microsome 10% remaining @ 10 μM” value read?
**A.** Its value is 3%.

**Q.** How did the “Mouse Microsome 10% remaining @ 10 μM” value turn out when `O=C(NCCC1CC1)c1ccc(N2CCN(Cc3ccc(F)cc3Cl)CC2)nn1` [6-[4-(2-CHLORO-4-FLUOROBENZYL)PIPERAZIN-1-YL]PYRIDAZINE-3-CARBOXYLIC ACID (2-CYCLOPROPYLETHYL)AMIDE] was run?
**A.** Its value is 11%.

**Q.** With `CC(C)CCNC(=O)c1ccc(N2CCN(C(=O)c3ccccc3N)CC2)nn1` [6-[4-(2-AMINOBENZOYL)PIPERAZIN-1-YL]PYRIDAZINE-3-CARBOXYLIC ACID (3-METHYLBUTYL)AMIDE] as the compound, how does the “Mouse Microsome 10% remaining @ 10 μM” value read?
**A.** Its value is 23%.

**Q.** `O=C(NCCC1CC1)c1ccc(N2CCN(C(=O)c3cc(C(F)(F)F)ccc3C(F)(F)F)CC2)nn1` [6-[4-(2,5-BIS-TRIFLUOROMETHYLBENZOYL)PIPERAZIN-1-YL]PYRIDAZINE-3-CARBOXYLIC ACID (2-CYCLOPROPYLETHYL)AMIDE] was tested. Which “Mouse Microsome 10% remaining @ 10 μM” value did it give?
**A.** The value was 6%.

**Q.** Which “Mouse Microsome 10% remaining @ 10 μM” value does the source give for `CC(C)CCNC(=O)c1ccc(N2CCN(C(=O)CCC(F)(F)F)CC2)nn1` [6-[4-(4,4,4-TRIFLUOROBUTYRYL)PIPERAZIN-1-YL]PYRIDAZINE-3-CARBOXYLIC ACID (3-METHYLBUTYL)AMIDE] here?
**A.** Its value is 42%.

**Q.** For `COC(=O)C(CC(C)C)NC(=O)c1ccc(N2CCN(C(=O)c3ccccc3C(F)(F)F)CC2)nn1` (centres unmarked) [4-METHYL-2-({6-[4-(2-TRIFLUOROMETHYLBENZOYL)PIPERAZIN-1-YL]-PYRIDAZINE-3-CARBONYL}AMINO)PENTANOIC ACID METHYL ESTER], which “Mouse Microsome 10% remaining @ 10 μM” value is on record?
**A.** The value was 69%.

**Q.** `CC(=CC(=O)N1CCN(c2ccc(C(=O)NCCC(C)C)nn2)CC1)C(F)(F)F` [6-[4-(4,4,4-TRIFLUORO-3-METHYLBUT-2-ENOYL)PIPERAZIN-1-YL]-PYRIDAZINE-3-CARBOXYLIC ACID (3-METHYLBUTYL)AMIDE] was tested. Which “Mouse Microsome 10% remaining @ 10 μM” value did it give?
**A.** Its value is 9%.

**Q.** Which “Mouse Microsome 10% remaining @ 10 μM” value does the source give for `CCC(CC)C(=O)N1CCN(c2ccc(C(=O)NCCC3CC3)nn2)CC1` [6-[4-(2-ETHYLBUTYRYL)PIPERAZIN-1-YL]PYRIDAZINE-3-CARBOXYLIC ACID (2-CYCLOPROPYLETHYL)AMIDE] here?
**A.** Its value is 36%.

**Q.** With `O=C(NCCC1CC1)c1ccc(N2CCN(Cc3cc(Cl)ccc3C(F)(F)F)CC2)nn1` [6-[4-(5-CHLORO-2-TRIFLUOROMETHYLBENZYL)PIPERAZIN-1-YL]PYRIDAZINE-3-CARBOXYLIC ACID (2-CYCLOPROPYLETHYL)AMIDE] as the compound, how does the “Mouse Microsome 10% remaining @ 10 μM” value read?
**A.** The value was 7%.

**Q.** With `O=C(NCCCC1CC1)c1ccc(N2CCN(Cc3cc(F)ccc3C(F)(F)F)CC2)nn1` [6-[4-(5-FLUORO-2-TRIFLUOROMETHYLBENZYL)PIPERAZIN-1-YL]PYRIDAZINE-3-CARBOXYLIC ACID (3-CYCLOPROPYLPROPYL)AMIDE] as the compound, how does the “Mouse Microsome 10% remaining @ 10 μM” value read?
**A.** Its value is 8%.

**Q.** How did the “Mouse Microsome 10% remaining @ 10 μM” value turn out when `O=C(Nc1ccc(N2CCN(C(=O)c3ccccc3C(F)(F)F)CC2)nn1)Nc1ccccc1F` [1-(2-FLUOROPHENYL)-3-{6-[4-(2-TRIFLUOROMETHYLBENZOYL)PIPERAZIN-1-YL]-PYRIDAZIN-3-YL}UREA] was run?
**A.** Its value is 73%.
